The values below come from PubChem BioAssay (NCI).

Molecules are shown by their SMILES. Where “and” joins values, the source holds several entries; their conditions need not be identical. Equal values may be shown once.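 Cultured in 96-well plates, cells were exposed to test compound for 48 hours across five concentrations. The concentration for 50% growth inhibition is given as GI50. TGI is the concentration that stops growth completely.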

Test systems include COLO 205 colon; HCT-116 colon; MOLT-4 leukemia; OVCAR-5 ovarian; RXF 393 renal; SK-MEL-2 melanoma; SK-OV-3 ovarian; SN12C renal; SW-620 colon; TK-10 renal.
Assay in all cases: inhibition of tumour cell growth, NCI panel, 48 h

Regarding `COc1ccc(C(NCCNC(c2ccc(OC)c(OC)c2)c2cc3c(cc2O)OCO3)c2cc3c(cc2O)OCO3)cc1OC` (stereo not given), the TGI in the test on COLO 205 colon is above 26.1 µM; in the test on HCT-116 colon, 6.05 µM; in the test with MOLT-4 leukemia it was above 100 µM; with OVCAR-5 ovarian, 11.6 µM; with RXF 393 renal, 4.85 µM; with SK-MEL-2 melanoma, 15.9 µM. Besides, the TGI in the test with SK-OV-3 ovarian turned out to be 18.8 µM; in the test with SN12C renal, 4.55 µM; in the test on SW-620 colon it was 3.86 µM; with TK-10 renal, 12.7 µM.
As to `C/C(=N\NC(=S)Nc1ccccc1)c1ccccn1`, the GI50 in the test with COLO 205 colon is 0.0119 µM; with HCT-116 colon, below 0.01 µM; in the test on MOLT-4 leukemia, below 0.0278 µM; in the test on OVCAR-5 ovarian, 0.118 µM; in the test with RXF 393 renal, 0.588 µM; in the test on SK-MEL-2 melanoma, 1.37 µM. For the same molecule, the GI50 in the test with SK-OV-3 ovarian is 0.51 µM; in the test with SN12C renal, 0.355 µM; in the test with SW-620 colon, 0.0242 µM; in the test on TK-10 renal, 1.02 µM. For the same molecule, the TGI amounted to 1.48 µM in the test on COLO 205 colon; 1.17 µM in the test on HCT-116 colon; 16.9 µM in the test with MOLT-4 leukemia; 10.9 µM with OVCAR-5 ovarian; 2.64 µM in the test on RXF 393 renal; 3.79 µM in the test on SK-MEL-2 melanoma. Also, the TGI was determined as 2.22 µM in the test with SK-OV-3 ovarian, 9.64 µM in the test on SN12C renal, 2.94 µM in the test on SW-620 colon and 3.77 µM with TK-10 renal.
As for `C=C1C(=O)C23C(O)C1CCC2C12CO[C@]3(O)[C@@H](O)C1C(C)(C)CCC2O` (stereo not given in full), the TGI was 7.87 µM in the test with COLO 205 colon; 15.5 µM in the test with HCT-116 colon; above 38.9 µM with MOLT-4 leukemia; 34.5 µM in the test with OVCAR-5 ovarian; 20.6 µM with RXF 393 renal; 30.2 µM with SK-MEL-2 melanoma. The TGI is 34.5 µM in the test on SK-OV-3 ovarian, 27.9 µM with SN12C renal, 23.8 µM in the test on SW-620 colon and 34.3 µM in the test with TK-10 renal.
Consider `O=C(O)Cc1ccccc1`, for which the GI50 in the test on COLO 205 colon, with HCT-116 colon, with MOLT-4 leukemia, in the test with OVCAR-5 ovarian, in the test on RXF 393 renal and with SK-MEL-2 melanoma was above 1000 µM in each case. Also, the GI50 with SK-OV-3 ovarian, with SN12C renal, with SW-620 colon and in the test on TK-10 renal was above 1000 µM throughout. Further, the TGI with COLO 205 colon was above 2000 µM; in the test on HCT-116 colon it was above 1000 µM; in the test on MOLT-4 leukemia it was > 1000 µM and 1260 µM; in the test on OVCAR-5 ovarian, above 2000 µM; with RXF 393 renal, > 1000 µM and 1940 µM; in the test on SK-MEL-2 melanoma, above 2000 µM. For the same molecule, the TGI in the test on SK-OV-3 ovarian, in the test with SN12C renal, in the test on SW-620 colon and with TK-10 renal was above 2000 µM throughout.
`Nc1ccc(C(=O)O)c2[nH]c3ccccc3c(=O)c12`: the TGI with COLO 205 colon, in the test on HCT-116 colon, in the test with MOLT-4 leukemia, in the test with OVCAR-5 ovarian, with RXF 393 renal and in the test on SK-MEL-2 melanoma was above 100 µM throughout. Also, the TGI in the test on SK-OV-3 ovarian, with SN12C renal, in the test with SW-620 colon and with TK-10 renal was above 100 µM in each case.
On to `O=C1NCC2=C1CCC1c3ccccc3CCN21` (stereo not given), for which the TGI in the test on COLO 205 colon, with HCT-116 colon, in the test with MOLT-4 leukemia, in the test with OVCAR-5 ovarian, with RXF 393 renal and with SK-MEL-2 melanoma was above 100 µM in each case. Also, the TGI with SK-OV-3 ovarian, with SN12C renal, in the test with SW-620 colon and with TK-10 renal was above 100 µM in each case.
Consider `O=[N+]([O-])c1ccc([I+]c2ccccc2)cc1`, for which the GI50 with COLO 205 colon is 1.37 µM; in the test on HCT-116 colon it was 1.83 µM; with MOLT-4 leukemia it was 3.17 µM; in the test on OVCAR-5 ovarian, 1.78 µM; with RXF 393 renal, 1.87 µM; with SK-MEL-2 melanoma it was 2.25 µM. The GI50 in the test on SK-OV-3 ovarian was 1.73 µM; with SN12C renal, 1.4 µM; in the test on SW-620 colon, 1.85 µM; in the test with TK-10 renal it was 3.61 µM. The TGI in the test on COLO 205 colon was 13.5 µM and 3.82 µM; in the test on HCT-116 colon, 17.5 µM and 3.8 µM; in the test with MOLT-4 leukemia, > 26.2 µM and 75.3 µM; in the test on OVCAR-5 ovarian it was 17 µM and 3.34 µM; in the test with RXF 393 renal, 10.8 µM and 3.76 µM; in the test with SK-MEL-2 melanoma it was 7.47 µM. Further, the TGI was 3.6 µM and 3.24 µM in the test on SK-OV-3 ovarian; 3.26 µM and 2.89 µM in the test with SN12C renal; 12.2 µM and 4.31 µM in the test on SW-620 colon; 26.9 µM and 15.5 µM with TK-10 renal.
On to `CC1(C)OCC(C2OC(On3nnc4ccc(Cl)cc43)C3OC(C)(C)OC23)O1` (stereo not given), for which the TGI in the test with COLO 205 colon, with HCT-116 colon, with MOLT-4 leukemia, in the test on OVCAR-5 ovarian, in the test with RXF 393 renal and in the test with SK-MEL-2 melanoma was above 100 µM each time. The TGI in the test with SK-OV-3 ovarian, with SN12C renal, in the test on SW-620 colon and in the test with TK-10 renal was above 100 µM throughout.
For `O=C1c2cccnc2-c2nc(-c3ccccc3)cc3c2c1nc1ccccc13`, the GI50 is 6 µM in the test with COLO 205 colon; 1.91 µM in the test with HCT-116 colon; 2.5 µM in the test on MOLT-4 leukemia; 16.2 µM in the test with OVCAR-5 ovarian; 16 µM with RXF 393 renal; 5.53 µM in the test on SK-MEL-2 melanoma. Moreover, the GI50 in the test with SK-OV-3 ovarian is 9.58 µM; in the test on SN12C renal, 7.14 µM; in the test on SW-620 colon it was 2.56 µM; with TK-10 renal, 24.3 µM. In addition, the TGI in the test with COLO 205 colon amounted to 19 µM; in the test on HCT-116 colon, 7.2 µM; with MOLT-4 leukemia it was 14.8 µM; in the test with OVCAR-5 ovarian it was 30.8 µM; in the test with RXF 393 renal, 32.3 µM; in the test on SK-MEL-2 melanoma, 20.1 µM. The TGI was 25.2 µM with SK-OV-3 ovarian, 21.1 µM in the test on SN12C renal, above 35.2 µM in the test with SW-620 colon and above 85.2 µM in the test with TK-10 renal.
Take `COC(=O)CC(CC(=O)C(=O)OC)C(=O)OC` (stereo not given): the TGI with COLO 205 colon, in the test with HCT-116 colon, with MOLT-4 leukemia, in the test on OVCAR-5 ovarian, in the test on RXF 393 renal and in the test with SK-MEL-2 melanoma was above 100 µM in each case. In addition, the TGI in the test with SK-OV-3 ovarian, in the test with SN12C renal, in the test on SW-620 colon and in the test with TK-10 renal was above 100 µM each time.
